Results from patent US8106033B2, “Composition and methods for the treatment of proliferative diseases” (priority 2005, dated 2012).
“Also recorded” adds a separate entry of the source. Read-outs that look alike come from different tables or passages of the source.

Tests used:
[1] = test system: DU145 tumor cells (human prostate cancer cell line); assay: DU145 tumor xenograft in nude mice (Example 7); assay type: in vivo; details: for effect on tumor growth (mean tumor volume): IP every other day, Compound A 200 mg/kg, oxaliplatin 5 mg/kg, alone or combined
Protocol: At this time, animals were divided into four groups (N=5) and were treated every other day by IP injections with: […] (b) oxaliplatin (5.0 mg/kg); […] All animals were examined for signs of toxicity. Tumor volumes and body weights were determined weekly. […] The tumor volume is plotted in FIG. 2 as the mean tumor volume±standard error of the mean (SEM) for all animals in each particular dose group.

[2] = test system: MCF-7 tumor cells (human breast cancer cell line)
Protocol: Estradiol pellets (1 mg) were implanted interscapularly into twenty female athymic nude mice (NCR-nu/nu, Taconic) mouse. After 24 hours 1×10^7 MCF-7 tumor cells (breast cancer cell line) were implanted in the mammary fat pad of each mouse. The tumors produced by the tumor cell injections were allowed to grow for a period of 10-15 days until the tumors reached a size from 200 to 250 mm^3. The mice were then divided into four test groups (N=5) which were treated every other day by IP injections with: (a) (E)-2-(5-((2,4,6-trimethoxystyrylsulfonyl)methyl)-2-methoxyphenylamino)acetic acid sodium salt (200 mg/kg) dissolved in PBS; (b) doxorubicin (2.5 mg/kg) dissolved in PBS; (c) a combination of (E)-2-(5-((2,4,6-trimethoxystyrylsulfonyl)methyl)-2-methoxyphenylamino)acetic acid sodium salt (200 mg/kg) and doxorubicin (2.5 mg/kg) dissolved in PBS; or (d) PBS vehicle containing no drug. […] Body weights are plotted in FIG. 3(b) as the mean of the measured weights of all the animals in each dose group. Tumor volume was determined by measuring each tumor in two dimensions using traceable digital Vernier calipers. The tumor volume was calculated for each tumor using the equation: V=L×(S^2)π/6. The tumor volume is plotted in FIG. 3(a) as the mean tumor volume all animals in each particular dose group.

[3] = test system: BEL-7402 tumor cells (human hepatoma cell line); assay type: in vivo; details: BEL-7402 xenograft, IP every other day, Compound A 200 mg/kg, oxaliplatin 5 mg/kg, alone or combined
Protocol: Twenty female athymic nude mice (NCR-nu/nu, Taconic) were injected subcutaneously with 1×10^7 BEL-7402 tumor cells (human hepatoma cell line). The tumors produced by the tumor cell injections were allowed to grow for a period of 10-14 days until the tumors reached a size from 200 to 250 mm^3. The mice were then divided into four test groups (N=5) which were treated every other day by intraperitoneal (IP) injections of: (a) (E)-2-(5-((2,4,6-trimethoxystyrylsulfonyl)methyl)-2-methoxyphenylamino)acetic acid sodium salt (Compound A) (200 mg/kg) dissolved in PBS; (b) oxaliplatin (5 mg/kg); (c) a combination of (E)-2-(5-((2,4,6-trimethoxystyrylsulfonyl)methyl)-2-methoxyphenylamino)acetic acid sodium salt (200 mg/kg) dissolved in PBS and oxaliplatin (5 mg/kg), or (d) PBS vehicle containing no drug. […] Body weights are plotted in FIG. 1(b) as the mean of the measured weights of all the animals in each dose group. Tumor volume was determined by measuring each tumor in two dimensions using traceable digital Vernier calipers (Fisher Scientific International Inc., Liberty Lane, Hampton, N.H. 03842). The tumor volume was calculated for each tumor using the equation: V=L×(S^2)π/6, wherein L is the longer, and S is the shorter of the two measured dimensions. […]

[4] = test system: MCF-7 tumor cells (human breast cancer cell line); assay: Doxorubicin toxicity and lethality in MCF-7 tumor-bearing nude mice (Example 9); assay type: in vivo
Protocol: Estradiol pellets (1 mg) were implanted interscapularly into ten female athymic nude mice (NCR-nu/nu, Taconic) mouse. […] Body weights for the individual animals of group (a) are plotted in FIG. 4(a) and body weights for the individual animals of group (b) are plotted in FIG. 4(b).

[5] = MCF-7 xenograft, IP every other day, Compound A 200 mg/kg, doxorubicin 2.5 mg/kg, alone or combined

Compound	effect on tumor growth (mean tumor volume) [1]	time at which tumors were of comparable volume to control tumors after 28 days ([1]; single agents) [days]	survival of the animals [2, 5] [days]	effect on tumor growth (mean tumor volume) ([2]; MCF-7 xenograft, IP every other day, Compound A 200 mg/kg, doxorubicin 2.5 mg/kg, alone or combined, sodium salt)	effect on tumor growth (mean tumor volume) ([3]; sodium salt)	effect on tumor growth (mean tumor volume) [2, 5]	tumor size when the animals had died ([2]; doxorubicin 2.5 mg/kg alone, by the 35th day) [mm^3]	animals with major weight loss immediately preceding death ([4]; doxorubicin 1 mg/kg IP every other day alone)	body weight change ([4]; doxorubicin 1 mg/kg IP every other day, alone or with Compound A 200 mg/kg)	survival rate ([4]; doxorubicin 1 mg/kg IP every other day, alone or with Compound A 200 mg/kg, N=5) [%]	effect on tumor growth (mean tumor volume) [3]
COc1cc(OC)c(/C=C/S(=O)(=O)Cc2ccc(OC)c(NCC(=O)[O-])c2)c(OC)c1.[Na+] [(E)-2-(5-((2,4,6-trimethoxystyrylsulfonyl)methyl)-2-methoxyphenylamino)acetic acid sodium salt]	significant therapeutic response	63	84	significantly slowed the growth of the tumors; also recorded: comparable reduction in tumor growth	significant greater reduction in tumor growth; also recorded: slowed the growth of the tumor						
COc1cccc2c1C(=O)c1c(O)c3c(c(O)c1C2=O)C[C@@](O)(C(=O)CO)C[C@@H]3O[C@H]1C[C@H](N)[C@H](O)[C@H](C)O1 [doxorubicin]						significantly slowed the growth of the tumors	500	4 of the 5	initial suggestive weight gain	20	
O=C1[O][Pt]2([NH][C@@H]3CCCC[C@H]3[NH]2)[O]C1=O [oxaliplatin]	significant therapeutic response										significant greater reduction in tumor growth; also recorded: slowed the growth of the tumor
